PMC6382696, “Drug Repurposing: The Anthelmintics Niclosamide and Nitazoxanide Are Potent TMEM16A Antagonists That Fully Bronchodilate Airways” (Frontiers in Pharmacology, 2019)
“And” between values parts separate entries of the source, which are not always exact repeats. Equal entries are not always repeated. Where two headings read alike, the source gives them in different places.

Assays:
[1] = test system: human bronchial smooth muscle cells; assay: Histamine-induced depolarization of human bronchial smooth muscle cells (FLIPR membrane potential); type: cell-based; settings: read-out: Histamine Depolarization of ASM Cells (IC50)
Method: Cultured human bronchial smooth muscle cells (BSMC) from Lonza were resuspended in Smooth Muscle Growth Medium-2 (SmGM-2; Lonza) at a concentration of 4 × 10^5 cells per ml. One hundred microliters of cells per well were plated in a black wall clear bottom polystyrene 96-well tissue culture plate and incubated in a 37°C humidified incubator with 5% CO2 overnight. Cells were serum starved by removing the SmGM-2 and replaced with one hundred microliters per well of Smooth Muscle Cell Basal Medium 2 (SmBM-2), phenol red-free (PromoCell), and incubated in a 37°C humidified incubator with 5% CO2 for 24 h. SmBM-2 was replaced with 100 microliters of fresh SmBM-2. Compounds were dissolved in 100% DMSO and serially diluted ½ log in a polypropylene 96-well microtiter plate (drug plate). Columns 6 and 12 were reserved as controls (HI control and LO control respectively) and contained only DMSO. Serially diluted compounds were diluted in SmBM-2 to 10X the final concentration. Twenty-five microliters of 10X compound titrations, and one hundred microliters of Blue dye-loading buffer (FLIPR Membrane Potential Assay Kit; Molecular Devices) were added to the cells. Cells were pre-incubated at room temperature with compound for 0.5 h. Five micromolar (10X) histamine was prepared in SmBM-2. Using the FLIPR-Tetra (Molecular Devices), three measurements of the baseline fluorescence were taken over the span of 1 min. Twenty-five microliters per well of 10X histamine were added to the first 11 columns of the plate containing the compound treated cells. Twenty-five microliters of SmBM-2 were added to column 12 for the LO control. Fifty-five fluorescence measurements were taken over the span of 14 min. The area under the curve (AUC) from the fluorescence kinetic traces (normalized to baseline fluorescence) were calculated. The amount of fluorescence in the presence of compound compared with that in the presence of DMSO vehicle alone (HI control) was calculated using the formula: % control (POC) = (compd – average LO)/(average HI – average LO)^∗100.

[2] = target: T1, hTMEM16A (abc) (Homo sapiens, UniProt Q5XXA6, DEL476-501); assay: medchem TMEM16A halide-sensitive YFP assay, 22-point dose-response; type: cell-based; set-up: expressed in transfected cells; settings: for scope of block of ionomycin-induced iodide eYFP quenching: up to 55.6 μM
T1 sequence (Q5XXA6 with tags, fused parts or gaps isoform Q5XXA6-5 DEL539-564): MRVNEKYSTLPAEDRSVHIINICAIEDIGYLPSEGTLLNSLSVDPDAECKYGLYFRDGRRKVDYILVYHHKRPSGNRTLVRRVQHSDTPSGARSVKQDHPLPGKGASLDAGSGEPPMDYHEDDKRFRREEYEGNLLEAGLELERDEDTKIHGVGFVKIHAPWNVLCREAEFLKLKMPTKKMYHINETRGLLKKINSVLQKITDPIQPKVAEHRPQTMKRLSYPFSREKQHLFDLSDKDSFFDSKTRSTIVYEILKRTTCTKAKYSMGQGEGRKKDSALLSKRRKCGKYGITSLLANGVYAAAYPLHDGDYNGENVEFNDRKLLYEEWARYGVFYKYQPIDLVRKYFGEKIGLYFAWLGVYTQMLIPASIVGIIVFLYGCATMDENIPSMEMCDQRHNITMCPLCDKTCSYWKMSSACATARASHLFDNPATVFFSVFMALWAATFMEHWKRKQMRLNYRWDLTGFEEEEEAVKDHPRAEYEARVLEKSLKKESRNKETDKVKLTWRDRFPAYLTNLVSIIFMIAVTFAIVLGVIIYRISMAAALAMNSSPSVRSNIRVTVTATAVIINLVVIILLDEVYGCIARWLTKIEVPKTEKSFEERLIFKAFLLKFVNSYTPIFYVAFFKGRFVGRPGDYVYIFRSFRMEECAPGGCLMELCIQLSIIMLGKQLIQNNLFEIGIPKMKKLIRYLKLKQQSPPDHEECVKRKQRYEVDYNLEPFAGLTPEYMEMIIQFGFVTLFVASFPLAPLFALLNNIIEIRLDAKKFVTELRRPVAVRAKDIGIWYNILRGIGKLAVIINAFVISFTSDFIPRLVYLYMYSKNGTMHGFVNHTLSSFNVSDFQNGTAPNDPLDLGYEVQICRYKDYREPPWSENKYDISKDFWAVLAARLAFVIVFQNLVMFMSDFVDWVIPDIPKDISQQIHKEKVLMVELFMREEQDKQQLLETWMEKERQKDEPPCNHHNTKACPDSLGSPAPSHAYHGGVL
In short: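 HEK293T stably expressing eYFP (H149Q, I153L) and hTMEM16A(abc), preincubated 30 min at room temperature with compound in HBSS/10 mM HEPES pH 7.4.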

[3] = average, 22-point dose-response, iodide as permeant anion, read-out: TMEM16A eYFP Assay (IC50)
[4] = supplement, iodide as permeant anion, maximum concentration 55.6, read-out: TMEM16A eYFP Assay IC50

SMILES	IC50 [1] [nM]	IC50 [2, 3]	IC50 [2, 4] [nM]	scope of block of ionomycin-induced iodide eYFP quenching [2]	IC50 ([2]; TMEM16A eYFP Assay IC50, supplement, iodide as permeant anion, maximum concentration 55.6) [nM]	maximal percent inhibition in the TMEM16A/eYFP assay ([2]; iodide as permeant anion) [%]	times more potent than other antagonists in the halide-sensitive YFP assay ([2]; versus eight benchmark antagonists)
N#Cc1c(C(F)(F)F)cc(O)n2c1nc1ccccc12 [1PBC]	964 ± 756	1520 ± 1360 nM	1520 ± 1360	only partial inhibition			
CCc1oc2ccccc2c1C(=O)c1cc(Br)c(O)c(Br)c1 [Benzbromarone]	208 ± 248	1510 ± 504 nM		fully inhibited	1510 ± 504		
CC(C)(C)C1CCc2c(sc(NC(=O)c3ccco3)c2C(=O)O)C1 (stereo not shown) [CaCCinh-A01]	4760 ± 1230						
O=C(Nc1ccc([N+](=O)[O-])cc1)c1cc(Cl)ccc1O [Cpd 2]	44			only partially inhibited			
O=C(Nc1ccc([N+](=O)[O-])cc1)c1cc(Cl)c2ccccc2c1O [Cpd 3]	17	184 ± 89 nM		only partially inhibited			
COc1cc([N+](=O)[O-])ccc1NC(=O)c1cc(Cl)c2ccccc2c1O [Cpd 4]	178 ± 7	901 ± 524 nM	954 ± 648	only partial inhibition			
O=C(Nc1ccc(Cl)cc1)c1cc(Cl)ccc1O [Cpd 5]	71 ± 20	370 ± 131 nM	370 ± 131	only partially inhibited			
Oc1ccc(Cl)cc1Cc1cc(Cl)ccc1O [Dichlorophen]	938 ± 360	4370 ± 1210 nM	4360 ± 1210	fully inhibited			
COc1cc(Nc2ccc([N+](=O)[O-])cc2C(=O)O)cc2ccccc12 [MONNA]	201 ± 162	6300 ± 1470 nM	6290 ± 1470	fully inhibited			
O=C(Nc1ncc([N+](=O)[O-])s1)c1cccs1 [NTTP]	25200 ± 5440	2480 ± 1240 nM					
O=C(Nc1ccc([N+](=O)[O-])cc1Cl)c1cc(Cl)ccc1O [Niclosamide]	389 ± 478	130 nM and 132 nM	132 ± 67.1	only partial inhibition		62.4 ± 12.0	10–200 times
O=C(O)c1cccnc1Nc1cccc(C(F)(F)F)c1 [Niflumic Acid]	6280 ± 1590	26600 ± 11800 nM					
CCc1c(C)nc(SCC(=O)Nc2nc(-c3ccc(OC)cc3)cs2)[nH]c1=O [T16Ainh-A01]	> 30000	> 50000 nM	> 55600	inactive			
O=C(Nc1ncc([N+](=O)[O-])s1)c1ccccc1O [Tizoxanide]		398 nM		partially inhibiting			
